From patent US20120065123A1, “Synthetic Antibodies” (priority 2009, published 2012)
Read-outs that look alike come from different tables or passages of the source. One block for each substance: values may come before it. Where no end group is shown, it is not given here. The star is where a group is joined. StBu = CC(C)(C)S*

Assays:
Type in all cases: binding
Transferrin [1] = target: T1, Transferrin (Homo sapiens, UniProt P02787); test: SPR steady state affinity of mRNA display clones (Biacore T100); conditions: for Kd: steady state affinity model
Protocol: Five clones (see Table 15) were selected, synthesized and purified by HPLC for characterization by surface plasmon resonance (SPR) (T 100 instrument from Biacore). Transferrin was immobilized using standard NHS/EDC immobilization chemistry according to the methods described in Frostell-Karlsson, A., Remaeus, A., Andersson, K., Borg, P., Hamalainen, M., and Karlsson, R. (2000) J. Med. Chem. 43, resulting in 9758 RU of immobilized protein. HPLC purified peptides were injected over the surface and sensograms were recorded at multiple concentrations (32, 16, 8, 4, 2, 1, 0.5, 0.25, 0.125, and 0.0625 μM). Affinity plots were generated for each peptide and fit using a steady state affinity model.

Transferrin [2] = target: T1, Transferrin; test: SPR solution phase KD of candidate affinity elements, transferrin immobilized (Biacore T100); conditions: steady-state response, 25° C., PBST
Protocol: Transferrin 25 μg/ml in immobilization buffer selected for correct pH was then applied 302 at a flow rate of 5 to 10 μl/min for a contact time of about 5 to 10 minutes, allowing the amine functionality on the transferrin 308 to displace the activated NHS ester and bond to the surface via an amide bond. Finally, ethylene diamine (1M ethylene diamine-HCl at pH 8.5) was applied 304 at a flow rate of 5 to 10 μl/min for a contact time of about 6 to 7 minutes to deactivate any remaining reactive groups on the dextran chip surface. Flow rates and contact times are adjusted as necessary to provide the surface concentration of target desired for the intended application, and may vary by target. In general, for evaluating whether binding occurs, it is preferable to immobilize a relatively large quantity of target, and higher flow rates and/or longer contact times may be used. For determining kinetics, it is preferable to limit the amount of target immobilized so as to minimize rebinding and avidity effects, and lower flow rates and/or contact times may be used.
Candidate affinity elements for the transferrin synbody TRF19, TRF21, TRF23, TRF24, TRF25, and TRF26 were individually evaluated for solution phase KD with respect to transferrin by SPR analysis. Because the off rates for these polypeptides were very high, KD values were estimated by measuring steady-state response for at least five concentrations in a two-fold dilution series, each concentration tested in duplicate. For each experiment, response data were processed using a reference surface to correct for bulk refractive index changes and any non-specific binding. Data were also double referenced using responses from blank running buffer injections. Each experiment was conducted at 25° C. using PBST (0.01M Phosphate Buffered Saline, 0.138M NaCl, 0.0027M KCl, 0.05% surfactant Tween20, pH 7.4) as the running buffer on a Biacore T100 instrument. Analytes were injected for 60 s at a flow rate of 30 μl/min. The antigen surfaces were regenerated with 30 s consecutive pulses of NaOH/NaCl (50 mM NaOH in 1M NaCl) and Glycine (10 mM glycine-HCl, pH 2.5).

Transferrin [3] = target: T1, Transferrin; test: Peptide microarray ranking, labeled transferrin with E. coli lysate competitor; conditions: for Rank -- prewash: array with organic prewash; for Rank - non-prewash: array without organic prewash
Protocol: Several polypeptides were identified as candidate affinity elements for synbodies against an arbitrarily chosen protein target, transferrin, by incubating transferrin on the polypeptide microarray in the presence of E. coli lysate competitor. Transferrin was randomly direct-labeled at free amines with Alexa™ 555, and E. coli lysate was randomly direct-labeled at free amines with Alexa™ 647. Three replicate arrays were passivized by applying a mixture of BSA and mercaptohexanol for one hour. The arrays were blocked with unlabelled E. coli lysate for one hour, then washed three times with TBST (0.05% Tween) followed by three times with water. A mixture of labeled transferrin and labeled E. coli lysate was applied to the three replicate arrays and incubated for three hours. The arrays were again washed three times with TBST (0.05% Tween) followed by three times with water, and scanned at 555 nm and 647 nm using an array reader. Polypeptides were ranked as candidates for inclusion as affinity elements of synbodies by computing a score for each polypeptide equal to the mean raw 555 nm intensity over the six replicate features, squared, divided by the mean raw 647 nm intensity over the six replicate features. This simple scoring function tends to favor candidate polypeptides that bind at least moderate affinity, since otherwise the 555 nm intensity would be relatively lower, and that are relatively specific, since otherwise the 647 nm intensity would be relatively higher and contribute to a relatively lower score. Many variations of this ranking and identification process can be used, such as, by way of non-limiting examples, two-color comparisons against other competitors; comparisons with data taken in separate experiments with respect to other targets; and use of scoring functions taking into account other factors, employing other functional relationships, and/or involving statistical analysis and/or preprocessing of data and/or correcting for background fluorescence and/or other factors affecting the accuracy of the measured intensities. Ten polypeptides (Table 1) were identified for further evaluation for use as affinity elements in synbodies by choosing the polypeptides having the highest score (one polypeptide was rejected as difficult to synthesize, so the polypeptides chosen were ten of those having the eleven highest scores).
After preparation of the array in accordance with the methods previously described in Example 2, the array was washed one time for five minutes in 7.33% acetonitrile, 37% isopropanol, 0.55% trifluoroacetic acid, and 55% water. Alexa 555 labeled target protein transferrin was applied, together with Alexa 647 labeled E. coli lysate competitor, to the prewashed array and to an identical array without organic prewash. […] 5,010 on the array without organic prewash, but ranked no. 9601 on the prewashed array. Conversely, peptide TRF-21, shown by SPR analysis to be a relatively strong binder of transferrin, rose in rank from 84 on the non-prewashed array to rank no. 5 on the prewashed array.

TNF-α = TNF-α (Homo sapiens, UniProt P01375); test: SPR of TNF1 lead and mutant peptides on captured TNF-α (Biacore A100); conditions: for Binding ΔG (observed): calculated from dissociation constants; for Predicted Binding ΔG: sum of component contributions, energetic additivity
From the text: Scanning Mutagenesis of the TNF1 Lead Peptide. After lead identification, the next step in the AMPLI algorithm is characterization of point mutations in the lead heteropolymer. Using short peptides makes it chemically feasible to synthesize a significant fraction of the point-mutant space, which can then be screened for enhanced point mutations. For example, all possible point mutations in the 17 randomized positions using all 20 natural amino acids could be synthesized and screened within a single 384-well plate (323 total point-mutants). However, libraries containing all 20 natural amino acids are not required for affinity optimization of protein-protein interactions. A library of TNF1 point-mutants containing all substitutions of the amino acid set {Y, A, D, S, K, N, V, W} in each of the 17 randomized positions (132 unique point-mutants) was synthesized. Tyrosine (Y), alanine (A), aspartic acid (D) and serine (S) were selected because of their effectiveness in producing high affinity interactions when substituted into the complementary-determining regions (CDRs) of synthetic antibodies (Felouse, Proceedings of the National Academy of Sciences 101(34):12467, 2004), lysine (K) was selected to balance the charge in the substitution set, asparagine (N), valine (V) and tryptophan (W) were selected to span the hydropathicity range (Kyte J & Doolittle R F, Journal of Molecular Biology 157(1):105-132, 1982). […] This concentration was used to increase the high-end dynamic range for quantifying enhancing point mutations at the expense of low-end dynamic range for quantifying detrimental point mutations.
Point-mutant libraries were prepared in 96-well stock plates From the stock plate, peptides were diluted to 50 μM concentration in Biacore HBS-EP buffer (GE Healthcare, Piscataway, N.J.) containing 1 mg/ml carboxymethyl-dextran (Sigma-Aldrich, St. Louis, Mo.) to reduce non-specific binding to the CM-5 SPR chip surface. TNF-α was captured on a CM-5 chip surface at different capture levels on spots 1, 2, 4, and 5 across all four flow cells corresponding to a 40-200 RU range of predicted Rmax binding responses. Spot 3 contained only immobilized neutravidin and served as a reference spot.
Using the prepared 96-well plates and Biacore A100 SPR instrument, four peptides were flowed separately, in parallel, through the four flow cells over all 4 TNF-α spots and the neutravidin reference spot, with a 60 second association phase and 300 second dissociation phase. SPR sensorgrams were recorded for each peptide response with all 4 TNF-α spots and the neutravidin reference spot across the four flow cells on the SPR chip. Surface regeneration was performed after every 12 injections in each flow cell with Biacore Glycine 2.5 regeneration solution (GE Healthcare, Piscataway, N.J.). Point-mutant reference subtracted, peptide molecular weight adjusted, responses at the late binding region of the sensorgram (a few seconds before dissociation) were compared to the response of the TNF1 lead
Purified point-mutant affinities were measured on the Biacore A100 using SPR equilibrium binding response across a series of peptide concentrations on an SPR chip with TNF-α captured as described above.
These sequences were synthesized and purified using standard solid-phase FMOC synthesis and HPLC purification.

[4] = target: Tumor Necrosis Factor-alpha (TNF-α) (Homo sapiens, UniProt P01375); test: Chromatographic affinity screening on protein-coupled pipette tips with MALDI readout; conditions: 500 nM each synbody in E. Coli Lysate
Protocol: The target proteins, Transferrin (TRF) and Tumor Necrosis Factor-alpha (TNF-α), were each covalently attached to pipette tips (one protein per pipette tip) containing carboxymethyl dextran matrix (Intrinsic Bioprobes, Tempe, Ariz.) using standard amine coupling chemistry. The unmodified tips were first washed with 0.5 M HCl followed by acetone. Each tip was activated using a 50 mg/mL solution of […] (CDI) in N-methyl-pyrolidone (NMP). Each tip was washed with NMP to remove excess CDI. Each protein was prepared as a 50 μg/mL solution in 100 mM sodium acetate pH 5.0 and cycled through a CDI activated tip for 30 minutes. Un-reacted CDI in the tip was then quenched with the addition of 1.5 M ethanolamine pH 8.5 and then washed extensively with HBS-N buffer. The protein-coupled tips were then stored in HBS-N buffer at 4° C. Negative control tips were prepared in the same manner except that no protein was added to the sodium acetate solution during the protein coupling step.
A library of 14 candidate synbodies (Table 9) was prepared by making 12 μM stock solutions in 1× phosphate buffered saline (PBS) of each HPLC purified synbody and […] of each stock solution was added to 600 μL of E. Coli Lysate that had been treated with a protease inhibitor. Thus the final concentration of each synbody was 500 nM.
A negative control pipette tip (blank tip), a TRF tip, and a TNF-α tip, were washed with 0.1% sodium dodecyl sulfate (SDS) to remove any non-covalently bound protein and then washed with HBS buffer. The tips were then incubated for 15 minutes in 150 μL of the synbody library. Each tip was then washed 5 times in 150 μL of HBS-N. This step was then repeated and each tip was washed 5 times in 150 μL of 0.25 M NaCl. Each tip was then washed 5 times in 150 μL of Milli-Q water and this step was repeated. […]
Each elution sample was spotted onto a MALDI plate and analyzed in reflectron mode on a Bruker Daltonics UltraFlex III TOF/TOF MALDI Mass Spectrometer.

[5] = SPR equilibrium binding response, read-out: Kd (observed)
[6] = energetic additivity of component mutations, read-out: Predicted Kd

T1 sequence (P02787 20-698): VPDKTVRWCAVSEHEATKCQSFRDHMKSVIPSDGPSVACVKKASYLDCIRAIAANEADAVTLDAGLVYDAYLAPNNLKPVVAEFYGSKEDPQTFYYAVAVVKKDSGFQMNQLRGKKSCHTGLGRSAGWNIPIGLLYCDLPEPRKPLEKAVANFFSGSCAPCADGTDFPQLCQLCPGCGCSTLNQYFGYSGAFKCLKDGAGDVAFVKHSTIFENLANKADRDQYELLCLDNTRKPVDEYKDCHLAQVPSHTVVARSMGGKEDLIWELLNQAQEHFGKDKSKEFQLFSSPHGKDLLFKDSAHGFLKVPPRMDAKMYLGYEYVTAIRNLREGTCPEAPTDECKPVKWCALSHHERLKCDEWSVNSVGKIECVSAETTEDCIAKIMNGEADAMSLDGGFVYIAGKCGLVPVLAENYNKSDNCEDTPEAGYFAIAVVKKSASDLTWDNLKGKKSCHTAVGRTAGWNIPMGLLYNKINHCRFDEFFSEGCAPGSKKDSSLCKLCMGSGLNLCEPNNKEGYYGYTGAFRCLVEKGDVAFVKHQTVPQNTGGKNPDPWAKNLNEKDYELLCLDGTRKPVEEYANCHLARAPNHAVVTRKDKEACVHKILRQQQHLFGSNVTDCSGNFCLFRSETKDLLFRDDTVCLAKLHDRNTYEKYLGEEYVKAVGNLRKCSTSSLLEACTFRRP
Sequence of TNF-α (P01375 77-233 limits assumed, species assumed): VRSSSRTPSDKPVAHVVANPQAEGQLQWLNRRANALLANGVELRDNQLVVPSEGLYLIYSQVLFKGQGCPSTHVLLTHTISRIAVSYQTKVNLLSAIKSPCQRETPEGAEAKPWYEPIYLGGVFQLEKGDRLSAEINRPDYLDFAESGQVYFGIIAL
Sequence of Tumor Necrosis Factor-alpha (TNF-α) (P01375 77-233 limits assumed, species assumed): as above

fold improvement of affinity in comparison to TRF26 (Transferrin [1]): more than 10 fold
Kd (Transferrin [1]): 11.6 µM
Substance: AHKVVPQRQMRHAYSRYGSC [TBPM023]

Kd (Transferrin [2]): ~60 µM
Rank -- prewash (Transferrin [3]): 603
Rank - non-prewash (Transferrin [3]): 736
Substance: APYAPQQIHYWSTLGFKGSC [TRF25]

Component Binding ΔG Contribution (TNF-α): -0.82 ± 0.13 kcal/mol
Kd Fold-Change Relative to Lead (TNF-α): 3.9 ± 0.9
Kd (TNF-α; [5]): 40 ± 7.2 µM
Binding ΔG (observed) (TNF-α): -6.03 ± -.10 kcal/mol
Substance: FERDPLMMPWKFLQSRQGSC [Synbody S11K]

Binding ΔG (observed) (TNF-α): -5.21 ± 0.07 kcal/mol
Substance: FERDPLMMPWSFLQSRQGSC [TNF1]

Kd Fold-Change Relative to Lead (TNF-α): 23 ± 3.2
observed binding energy difference to the D4S+P5Y+M7K+S11K quadruple mutant (TNF-α): -0.94 ± 0.12 kcal/mol
Kd (TNF-α; [5]): 7 ± 0.5 µM
Binding ΔG (observed) (TNF-α): -7.03 ± 0.04 kcal/mol
Kd (TNF-α; [6]): 2.8 to 5.3 µM
Predicted Binding ΔG (TNF-α): -7.38 ± 0.19 kcal/mol
Substance: FERSYLMMPWKFLQSRQGSC [D4S + P5Y + S11K]

Kd Fold-Change Relative to Lead (TNF-α): 9.4 ± 1.6
Kd (TNF-α; [5]): 17 ± 1.9 µM
Binding ΔG (observed) (TNF-α): -6.54 ± 0.07 kcal/mol
Kd (TNF-α; [6]): 8.5 to 20 µM
Predicted Binding ΔG (TNF-α): -6.66 ± 0.25 kcal/mol
Substance: FERYPLKMPWSFLQSRQGSC [D4Y + M7K]

Kd Fold-Change Relative to Lead (TNF-α): 17 ± 2.5
Kd (TNF-α; [5]): 9.3 ± 0.7 µM
Binding ΔG (observed) (TNF-α): -6.67 ± 0.05 kcal/mol
Kd (TNF-α; [6]): 8 to 15 µM
Substance: FERYPLMMPWKFLQSRQGSC [D4Y + S11K]

Component Binding ΔG Contribution (TNF-α): -0.74 ± 0.10 kcal/mol
Kd Fold-Change Relative to Lead (TNF-α): 3.6 ± 0.6
Kd (TNF-α; [5]): 44 ± 4.8 µM
Binding ΔG (observed) (TNF-α): -5.95 ± 0.06 kcal/mol
Substance: FERYPLMMPWSFLQSRQGSC [Synbody D4Y]

Kd (Transferrin [1]): 150 µM
Substance: GHKVVPQRQIRHAYNRYGSC [TBPL005]

Kd (Transferrin [1]): 150 µM
Substance: GHKVVPQRQMRHAYNRNGSC [TBPL025]

Rank -- prewash (Transferrin [3]): 289
Rank - non-prewash (Transferrin [3]): 18
Substance: GQTQFAMHRFQQWYKIKGSC [TRF20]

Rank -- prewash (Transferrin [3]): 61
Rank - non-prewash (Transferrin [3]): 711
Substance: HAYKGPGDMRRFNHSGMGSC [TRF22]

Kd (Transferrin [2]): ~150 µM
Rank -- prewash (Transferrin [3]): 9601
Rank - non-prewash (Transferrin [3]): 5010
Rank - non-prewash (Transferrin [3]; listed as TRF-19): 5,010
Substance: KEDNPGYSSEQDYNKLDGSC [TRF19]

Rank -- prewash (Transferrin [3]): 3325
Rank - non-prewash (Transferrin [3]): 1289
Substance: LDPLFNTSIMVNWHRWMGSC [TRF27]

Kd (Transferrin [2]): ~60 µM
Rank -- prewash (Transferrin [3]): 5
Rank - non-prewash (Transferrin [3]): 84
Substance: QYHHFMNLKRQGRAQAYGSC [TRF21]

Kd (Transferrin [2]): ~50 µM
Rank -- prewash (Transferrin [3]): 958
Rank - non-prewash (Transferrin [3]): 71
Substance: SVKPWRPLITGNRWLNSGSC [TRF24]

Substance: TNF2-TNF3-KC-stBu: lysine-linked synbody (peptide 1 SMKMVQPGHLLISYGHQGSGKC(StBu); peptide 2 RTTEMPFVFALGSVHPGGSG; not fully specified)
MALDI peak in TNF-α tip elution (retention by target) [4]: showed a peak
